Source: ChEMBL document CHEMBL3813662, “Synthesis and biological activity of pyrazole analogues of the staurosporine aglycon K252c” (Bioorg Med Chem, 2016)
Calls of active or inactive are those of the source. No cut-off for these calls is given here.

Legend:
[1] = Cytotoxicity against human HCT116 cells after 72 hrs by MTT assay; type: functional, cell-based; details: HCT-116, 72 h
[2] = biological target: Protein kinase C alpha type (Homo sapiens) (UniProt P17252); test: Inhibition of human full length (His)6-tagged PKCalpha expressed in insect Sf21 cells using histone H1 as substrate assessed as residual enzyme activity at 1 uM measured for 30 mins by [gamma-33P]ATP-based kinase assay
[3] = biological target: T1, Serine/threonine-protein kinase pim-1 (Homo sapiens, UniProt P11309); test: Inhibition of human full length (His)6-tagged Pim-1 expressed in insect Sf21 cells using RSRHSSYPAGT as substrate assessed as residual enzyme activity at 1 uM measured for 30 mins by [gamma-33P]ATP-based kinase assay
Target sequence in this assay (P11309 whole entry, looked up): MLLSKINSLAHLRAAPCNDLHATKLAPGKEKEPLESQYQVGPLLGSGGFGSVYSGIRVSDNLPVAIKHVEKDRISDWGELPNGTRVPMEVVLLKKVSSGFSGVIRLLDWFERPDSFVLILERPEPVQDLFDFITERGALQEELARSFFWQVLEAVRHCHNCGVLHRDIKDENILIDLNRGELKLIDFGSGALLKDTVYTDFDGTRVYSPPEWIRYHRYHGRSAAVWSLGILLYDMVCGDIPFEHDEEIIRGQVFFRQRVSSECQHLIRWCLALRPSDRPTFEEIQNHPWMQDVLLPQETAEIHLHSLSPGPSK

[4] = biological target: T1, Serine/threonine-protein kinase pim-1; test: Inhibition of human full length (His)6-tagged Pim-1 expressed in insect Sf21 cells using RSRHSSYPAGT as substrate assessed as residual enzyme activity at 10 uM measured for 30 mins by [gamma-33P]ATP-based kinase assay
Target sequence in this assay (P11309 whole entry, looked up): as above

[5] = biological target: Protein kinase C alpha type (Homo sapiens) (UniProt P17252); test: Inhibition of human full length (His)6-tagged PKCalpha expressed in insect Sf21 cells using histone H1 as substrate assessed as residual enzyme activity at 10 uM measured for 30 mins by [gamma-33P]ATP-based kinase assay
[6] = biological target: Protein kinase C gamma type (Homo sapiens) (UniProt P05129); test: Inhibition of human full length (His)6-tagged PKCgamma expressed in insect Sf21 cells using histone H1 as substrate assessed as residual enzyme activity at 1 uM measured for 30 mins by [gamma-33P]ATP-based kinase assay
[7] = biological target: Protein kinase C gamma type (Homo sapiens) (UniProt P05129); test: Inhibition of human full length (His)6-tagged PKCgamma expressed in insect Sf21 cells using histone H1 as substrate assessed as residual enzyme activity at 10 uM measured for 30 mins by [gamma-33P]ATP-based kinase assay
[8] = tested on: K562; test: Cytotoxicity against human K562 cells after 72 hrs by MTT assay; type: functional, cell-based; details: K562, 72 h
[9] = tested on: K562; test: Cytotoxicity against human K562 cells; type: functional, cell-based
[10] = biological target: T1, Serine/threonine-protein kinase pim-1; test: Inhibition of human full length (His)6-tagged Pim-1 expressed in insect Sf21 cells using RSRHSSYPAGT as substrate measured for 30 mins by [gamma-33P]ATP-based kinase assay
Target sequence in this assay (P11309 whole entry): as the sequence (P11309 whole entry, looked up) above

[11] = tested on: Calf thymus DNA; test: Binding affinity to calf thymus double stranded DNA assessed as dsDNA level causing quenching of compound fluorescence by fluorescence spectrophotometric analysis; type: nucleic-acid assay, Bos taurus
[12] = tested on: Calf thymus DNA; test: Displacement of EtBr from calf thymus double stranded DNA by fluorescence spectrophotometric analysis; type: nucleic-acid assay, Bos taurus
[13] = biological target: T2, DNA topoisomerase 1 (Homo sapiens) (UniProt P11387); test: Inhibition of human topoisomerase1 activity at 20 uM using pBR322 plasmid DNA as substrate incubated for 30 mins by EtBr-based gel electrophoresis
T2 sequence (whole entry): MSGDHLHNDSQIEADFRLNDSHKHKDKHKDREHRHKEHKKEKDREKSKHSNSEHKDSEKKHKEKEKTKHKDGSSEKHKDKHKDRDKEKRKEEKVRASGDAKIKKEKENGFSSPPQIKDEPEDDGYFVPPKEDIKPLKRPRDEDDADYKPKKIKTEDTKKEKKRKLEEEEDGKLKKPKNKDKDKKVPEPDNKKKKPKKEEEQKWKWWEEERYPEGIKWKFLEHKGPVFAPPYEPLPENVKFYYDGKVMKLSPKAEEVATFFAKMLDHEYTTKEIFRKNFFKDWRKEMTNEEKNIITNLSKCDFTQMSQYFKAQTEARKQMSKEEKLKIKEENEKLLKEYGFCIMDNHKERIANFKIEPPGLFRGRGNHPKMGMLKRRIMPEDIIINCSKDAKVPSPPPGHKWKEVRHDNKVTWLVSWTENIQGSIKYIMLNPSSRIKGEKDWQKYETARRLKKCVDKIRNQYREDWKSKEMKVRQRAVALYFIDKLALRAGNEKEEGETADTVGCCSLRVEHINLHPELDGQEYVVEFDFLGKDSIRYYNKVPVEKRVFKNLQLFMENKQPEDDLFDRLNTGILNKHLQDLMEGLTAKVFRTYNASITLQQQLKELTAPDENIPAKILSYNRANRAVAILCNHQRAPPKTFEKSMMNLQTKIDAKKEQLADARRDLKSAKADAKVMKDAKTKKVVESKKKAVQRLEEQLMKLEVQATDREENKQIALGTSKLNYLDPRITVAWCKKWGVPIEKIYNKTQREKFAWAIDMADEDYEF

[14] = biological target: Serine/threonine-protein kinase pim-3 (Homo sapiens, UniProt Q86V86); test: Inhibition of human full length (His)6-tagged Pim-3 expressed in insect Sf21 cells using RSRHSSYPAGT as substrate measured for 30 mins by [gamma-33P]ATP-based kinase assay
[15] = biological target: Serine/threonine-protein kinase pim-2 (Homo sapiens, UniProt Q9P1W9); test: Inhibition of human full length GST-tagged Pim-2 expressed in Escherichia coli using RSRHSSYPAGT as substrate measured for 30 mins by [gamma-33P]ATP-based kinase assay
Sequence of Serine/threonine-protein kinase pim-2 (Q9P1W9 whole entry): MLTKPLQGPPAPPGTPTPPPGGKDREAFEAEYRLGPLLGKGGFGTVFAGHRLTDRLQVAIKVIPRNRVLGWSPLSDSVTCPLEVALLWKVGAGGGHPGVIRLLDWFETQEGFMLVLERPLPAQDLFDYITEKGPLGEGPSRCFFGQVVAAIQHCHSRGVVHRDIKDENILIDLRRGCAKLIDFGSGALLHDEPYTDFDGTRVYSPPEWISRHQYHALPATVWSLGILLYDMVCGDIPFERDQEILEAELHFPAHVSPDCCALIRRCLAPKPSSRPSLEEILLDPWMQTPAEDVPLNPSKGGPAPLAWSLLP

| SMILES | Activity [2] [%] | Activity [3] [%] | Activity [4] [%] | Activity [5] [%] | Activity [6] [%] | Activity [7] [%] | IC50 [10] [µM] | IC50 [11] [µM] | IC50 [12] [µM] | inhibition [13] | IC50 [14] [µM] | IC50 [15] [µM] | IC50 [1] [µM] | IC50 [8] [µM] | IC50 [9] [µM] |
| --- | --- | --- | --- | --- | --- | --- | --- | --- | --- | --- | --- | --- | --- | --- | --- |
| O=c1[nH][nH]c2c1c1c3ccccc3[nH]c1c1[nH]c3ccccc3c12 | 107 | 47 | 8 | 110 | 97 | 99 | – | – | – | – | – | – | 3.5 | 8.8 | – |
| O=C1NCc2c1c1c3ccccc3[nH]c1c1[nH]c3ccccc3c21 [STAUROSPORINONE] | – | – | – | – | – | – | – | – | – | – | – | – | – | – | 7.8 |
| c1ccc2c(c1)[nH]c1c3[nH]c4ccccc4c3c3[nH]ncc3c21 | 103 | 13 | 2 | 108 | 101 | 91 | 0.15 | 90 | 16 | inactive | 0.022 | 0.59 | 4.2 | 4.5 | – |

Second part, led by results:

| Activity [2] [%] | Activity [3] [%] | Activity [4] [%] | Activity [5] [%] | Activity [6] [%] | Activity [7] [%] | IC50 [10] [µM] | IC50 [11] [µM] | IC50 [12] [µM] | inhibition [13] | IC50 [14] [µM] | IC50 [15] [µM] | SMILES | IC50 [1] [µM] | IC50 [8] [µM] | IC50 [9] [µM] |
| --- | --- | --- | --- | --- | --- | --- | --- | --- | --- | --- | --- | --- | --- | --- | --- |
| 112 | 98 | 73 | 100 | 105 | 91 | – | – | – | – | – | – | c1ccc2c(-c3cn[nH]c3-c3c[nH]c4ccccc34)c[nH]c2c1 | 30 | 18 | – |
| 117 | 94 | 67 | 93 | 100 | 92 | – | – | – | – | – | – | O=c1[nH][nH]c(-c2c[nH]c3ccccc23)c1-c1c[nH]c2ccccc12 | > 50 | > 50 | – |
